Measured values as given in patent US12364733B1, “Method for treating septic shock” (Inotrem, priority 2018, dated 2025).
“Also recorded” adds a separate entry of the source.

Tests used:
Type in all cases: in vivo, human
[1] = test system: anti-nangibotide antibodies; assay: Immunogenicity: anti-nangibotide antibodies in serum by indirect ELISA; conditions: baseline, day 8 and day 28
Protocol: Anti-nangibotide antibodies in serum were evaluated at baseline, day 8 and day 28, by an indirect ELISA method validated according to methods described by Shankar et al. (J Pharm Biomed Anal. 2008 Dec. 15; 48(5):1267-81) and EMA guidance on immunogenicity assessment of biotechnology-derived therapeutic proteins (EMEA/CHMP/BMWP/14327/2006 issued on April 2008). Screening samples determined as positive were further assessed using the confirmatory assay where the cut point was established to have 0.1% of false positive samples (Shankar et al., J Pharm Biomed Anal. 2008 Dec. 15; 48(5):1267-81). […] The sensitivity of the assay was established to be 0.3125 pg/mL.

septic shock patients = assay: Phase IIa clinical trial with nangibotide in septic shock patients: mortality; conditions: for Sepsis-related mortality at 5 days, % / Sepsis-related mortality at 5 days, number of death / Sepsis-related mortality at 28 days, % / Sepsis-related mortality at 28 days, number of death / Sepsis-related mortality at 90 days, % / Sepsis-related mortality at 90 days, number of death: subgroup sTREM-1 at baseline above the median (433pg/mL); for All-cause mortality at 90 days, number of death / All-cause mortality at 5 days, % / All-cause mortality at 5 days, number of death / All-cause mortality at 28 days, % / All-cause mortality at 28 days, number of death / All-cause mortality at 90 days, %: whole population
Protocol: This was a randomized, double-blind, two-stage, placebo-controlled study. As described in FIG. 7, the study was composed of 2 stages with a similar treatment regimen, in which 0.3, 1.0 or 3.0 mg/kg/h of nangibotide (corresponding to peptide LR12, having an amino acid sequence as set forth in SEQ ID NO: 9, also known as motrem) was tested versus placebo. All patients with a diagnosis of septic shock were considered for study participation. All potential study patients underwent standard care management procedures. Patients with evidence of septic shock according to the Sepsis-3 definition (Singer et al, JAMA 2016) were considered for inclusion (i.e., patients suffering from sepsis and having (i) persisting hypotension requiring vasopressors to maintain their mean arterial pressure ≥65 mm Hg and (ii) a serum lactate level >2 mmol/L (18 mg/dL) despite adequate volume resuscitation).
After screening for eligibility, patients were randomized to one of the treatment arms. Then, they received either a 5 mg/kg loading dose of nangibotide over 15 minutes followed by a continuous intravenous (i.v.) infusion of nangibotide or a matching placebo on top of standard of care. Treatment with study drug was initiated as early as possible, but no later than 24 hours after the onset of septic shock, defined by the start of vasopressor therapy. Patients were treated until 12 (±2) hours after the resolution of their septic shock (defined as vasopressor withdrawal) with a maximum treatment duration of 5 days (120 hours).
Adverse events (AEs) were coded using the MedDRA dictionary version 18.1. Treatment-emergent adverse events (TEAEs) were summarized and listed. Analysis was performed in 49 septic shock patients. The demographic and baseline characteristics were summarized in a descriptive fashion within each population: categorical variables were summarized by contingency tables (frequencies and percentages). sTREM-1 levels at day 1 were also described (mean, standard deviation, standard error, median, quartiles and range, minimum and maximum values). Mortality rates were reported by frequency and percentage. For continuous endpoints, i.e., the sequential organ failure assessment (SOFA), missing data were imputed using LOCF (Last Observation Carry-Forward). For time-to-event analyses, i.e., duration of invasive mechanical ventilation (IMV), duration of continuous renal replacement therapy (CRRT), survival, censored data techniques were utilized. In addition, a sensitivity analysis of time to event data (except survival) was performed using censoring at maximum limit for the corresponding observation period (i.e., either day 28 or day 90). […] The following comparisons were made: each nangibotide dose arm to placebo, all nangibotide doses combined versus placebo, and dose-response using an ordinal trend test. Exploratory composite endpoint: incidence (number and proportion) of patients alive at day 28 and free of vasopressor, free of IMV and free of CRRT were summarized by treatment and compared between treatments with a Fisher's exact test. For pharmacodynamic markers, log transformed data were represented as percentage change from baseline at day 5 or End of Infusion (EOI) if end of infusion was stopped before day 5. […] “All nangibotide” refers to analyses obtained by pooling data from 0.3, 1 and 3 mg/kg/h nangibotide-treated groups.

[2] = Blood nangibotide concentrations by LC-MS/MS (pharmacokinetics, phase IIa trial)
Protocol: Blood nangibotide concentrations were determined by a validated LC-MS/MS method in accordance with European Medicines Agency (EMA) guidelines on bioanalytical method validation EMEA/CHMP/EWP/192217/2009, version EMA/275542/2014. The peptide was stabilized in the blood samples by treatment with a 10% trichloroacetic acid solution ([…], 4° C.) and centrifugation (3500 g, 10 min, 4° C.) to collect and freeze the supernatant before analysis. The lower limit of quantification (LLOQ) and upper limit of quantification (ULOQ) were 5 ng/mL and 1000 ng/mL respectively. Standard curve was linear over the range 5 ng/mL to 1000 ng/mL with a correlation coefficient greater than 0.995. Within-run and between-run precision and accuracy within +/−20% LLOQ and +/−15% (other levels up to ULOQ) were achieved during a 3-run validation for quality controls (QCs) for nangibotide.

[3] = 0.3 mg/kg/h (N = 6), 1st dose column
[4] = 0.3 mg/kg/h (N = 6), 2nd dose column
[5] = 0.3 mg/kg/h (N = 8), 3rd dose column
[6] = 0.3 mg/kg/h (N = 12), 3rd dose column
[7] = 0.3 mg/kg/h (N = 13), 1st dose column
[8] = 1.0 mg/kg/h (N = 12), 2nd dose column
[9] = pooled (N = 37), listed as nangibotide

## nangibotide (LQEEDAGEYGCM; TLT-1 peptide)
[1]
  anti-nangibotide antibodies in serum: No anti-nangibotide antibodies were found
Septic shock patients; nangibotide group, whole study
  mortality vs. placebo: consistent trend in the proportion of death patients in favor of nangibotide-treated groups; also recorded: non-significant lower mortality
Septic shock patients; [3]
  Sepsis-related mortality at 5 days, %: 17%
  Sepsis-related mortality at 5 days, number of death: 1
  Sepsis-related mortality at 28 days, %: 17%
  Sepsis-related mortality at 28 days, number of death: 1
  Sepsis-related mortality at 90 days, %: 17%
  Sepsis-related mortality at 90 days, number of death: 1
Septic shock patients; [4]
  Sepsis-related mortality at 5 days, %: 17%
  Sepsis-related mortality at 5 days, number of death: 1
  Sepsis-related mortality at 28 days, %: 17%
  Sepsis-related mortality at 28 days, number of death: 1
  Sepsis-related mortality at 90 days, %: 17%
  Sepsis-related mortality at 90 days, number of death: 1
Septic shock patients; [5]
  Sepsis-related mortality at 5 days, number of death: 2
  Sepsis-related mortality at 28 days, number of death: 2
  Sepsis-related mortality at 90 days, number of death: 2
Septic shock patients; pooled (N = 20)
  Sepsis-related mortality at 5 days, %: 20%
  Sepsis-related mortality at 5 days, number of death: 4
  Sepsis-related mortality at 28 days, %: 20%
  Sepsis-related mortality at 28 days, number of death: 4
  Sepsis-related mortality at 90 days, %: 20%
  Sepsis-related mortality at 90 days, number of death: 4
Septic shock patients; 0.3 mg/kg/h (N = 12), 2nd dose column
  All-cause mortality at 90 days, number of death: 2
Septic shock patients; [6]
  All-cause mortality at 5 days, %: 17%
  All-cause mortality at 5 days, number of death: 2
  All-cause mortality at 28 days, %: 25%
  All-cause mortality at 28 days, number of death: 3
  All-cause mortality at 90 days, %: 33%
  All-cause mortality at 90 days, number of death: 4
Septic shock patients; [7]
  All-cause mortality at 5 days, %: 7.7%
  All-cause mortality at 5 days, number of death: 1
  All-cause mortality at 28 days, %: 15%
  All-cause mortality at 28 days, number of death: 2
  All-cause mortality at 90 days, %: 32%
  All-cause mortality at 90 days, number of death: 4
Septic shock patients; [8]
  All-cause mortality at 5 days, %: 8.3%
  All-cause mortality at 5 days, number of death: 1
  All-cause mortality at 28 days, %: 8.3%
  All-cause mortality at 28 days, number of death: 1
  All-cause mortality at 90 days, %: 17%
Septic shock patients; pooled (N = 37)
  All-cause mortality at 5 days, %: 11%
  All-cause mortality at 5 days, number of death: 4
  All-cause mortality at 28 days, %: 16%
  All-cause mortality at 28 days, number of death: 6
  All-cause mortality at 90 days, %: 27%
  All-cause mortality at 90 days, number of death: 10
Septic shock patients; [9]
  All-cause mortality at 28 days, %: 14%
  All-cause mortality at 28 days, number of death: 5
[2]; 0.3, 1.0, 3.0 mg/kg/h
  nangibotide blood concentration versus dose: proportional with the dose
[2]; human, in vivo
  clearance after the end of infusion: quickly cleared
[2]; in vivo
  pharmacokinetics / blood concentrations compared with healthy volunteers: within the same range previously observed in healthy volunteers
[2]; in vivo, iv
  pharmacokinetic behavior during intravenous infusion: linear behavior
